Values of other authors as cited in US10058543B2, “Treatment of familial exudative vitreoretinopathy through S1PR2 inhibition” (DALHOUSIE UNIVERSITY, priority 2014, dated 2018).
“Also recorded” adds a separate entry of the source.

Columns and labels:
VEGF = conditions: ocular injection, FEVR patient, one study
S1PR2 = S1PR2 (Homo sapiens, UniProt O95136)
Sequence of S1PR2 (O95136 whole entry): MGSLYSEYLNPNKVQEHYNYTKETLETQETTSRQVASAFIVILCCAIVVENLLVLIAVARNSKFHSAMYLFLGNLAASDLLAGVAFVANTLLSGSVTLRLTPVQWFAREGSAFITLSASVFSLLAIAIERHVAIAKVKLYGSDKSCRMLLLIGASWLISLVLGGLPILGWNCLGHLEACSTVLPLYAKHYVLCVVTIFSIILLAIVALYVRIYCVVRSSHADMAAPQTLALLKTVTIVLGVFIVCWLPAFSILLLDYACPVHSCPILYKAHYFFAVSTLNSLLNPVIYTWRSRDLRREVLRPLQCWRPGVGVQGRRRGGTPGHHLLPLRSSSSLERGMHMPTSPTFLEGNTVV

Sequence of VEGF (P15692 207-311 limits assumed): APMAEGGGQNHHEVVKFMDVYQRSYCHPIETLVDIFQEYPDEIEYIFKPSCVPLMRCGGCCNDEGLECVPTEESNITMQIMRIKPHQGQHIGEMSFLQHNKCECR

Molecule	retinal hemorrhage and neovascularization (VEGF)	specificity for S1PR2 versus other S1PRs (S1PR2)	affinity (S1PR2; S1PR2, stated in words)	specificity for S1PR2 (S1PR2; stated in words)
bevacizumab: monoclonal antibody that inhibits VEGF function originally developed to treat cancers	improvement of retinal hemorrhage and neovascularization			
Cc1nn(C)c2nc(NNC(=O)Nc3cc(Cl)nc(Cl)c3)cc(C(C)C)c12 [JTE-103, 1-(2,6-dichloro-4-pyridyl)-3-[(4-isopropyl-1,3-dimethyl-pyrazolo[3,4-n]pyridin-6-yl)amino]urea]		10 fold	uM affinity; also recorded: low affinity	some specificity for S1PR2
